The record followed here is patent publication EP4635958A1, “PYRIMIDINE-CONTAINING POLYCYCLIC DERIVATIVE INHIBITOR, AND PREPARATION METHOD THEREFOR AND USE THEREOF” (Shanghai Hansoh Biomedical Co., Ltd., priority 2022, dated 2024).

The nature of data set [1]: Pharmacokinetic determination in mice (IV and PO, plasma, LCMS/MS). Format: in vivo, Balb/c mice. Particulars: for AUC(0-inf) / Cmax / half-life / Tmax / C0 / clearance: mouse, in vivo, plasma; for Cmax: read-out: Cmax; for half-life: read-out: T1/2 (converted); for Tmax: read-out: Tmax; for C0: read-out: C0; for clearance: read-out: CL. Put shortly:
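Male Balb/c mice, fasted overnight (n=3 per route): PO 30 mg/kg in 10% Captisol/50 mM citrate pH 5.0, or IV 1 mg/kg in 5% DMSO/10% Solutol HS15/85% PBS. Orbital blood sampled predose to 24 h; EDTA plasma analysed by LC-MS/MS.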

The next data set has as its system GP2D. Kind of data set: Inhibition of proliferation of KRAS G12D mutant tumor cell line GP2D (CellTiter-Glo). Particulars: read-out: GP2D IC50. For orientation: ATP-based viability assays read luminescence as a measure of living cells.
Setting [2] is: PO, 30 mg/kg, male Balb/c mice, overnight fasting, read-out: AUC0-∞.
Setting [3] is: PO, 30 mg/kg, male Balb/c mice, overnight fasting.
[4] abbreviates: Balb/c mice, intravenously (IV), 1 mg/kg, read-out: AUCo-∞.
Setting [5] is: Balb/c mice, intravenously (IV), 1 mg/kg.

Counter-ions that a name gives are not always drawn. Like-named read-outs stand apart in the source and are kept apart here.

Procedure for GP2D: Experimental method: When SNU-1, HPAF-II, Panc0403, AsPC-1 or GP2D cells were cultured to the appropriate confluence, and the SNU-1, HPAF-II, Panc0403, AsPC-1 or GP2D cells were collected. The cells were adjusted to the appropriate cell density using complete culture medium, the cell suspension was plated onto a 96-well plate at 90 µL per well, and the plate was placed in the incubator at 37°C and 5% CO2 for adherent culture overnight. Solutions of the compound with different concentrations were formulated using DMSO and culture medium. A vehicle control was set up. […] Then, CellTiter-Glo solution was added, and the obtained mixture was shaken and mixed evenly, incubated in the dark for 10 min, and read with a BioTek Synergy H1 microplate reader. […] Experimental data processing method: The luminescence signal value was used to calculate the inhibition rate. Graphpad Prism software was used to fit the concentration and inhibition rate to a nonlinear regression curve, so as to obtain the IC50 value.

In general, Cmax refers to the peak of the concentration-time curve. As a reminder, the Tmax is the time at which the peak concentration occurs. As a reminder, the IC50 is the concentration that gives 50% inhibition. Take `CON=C1CCN(CC2(COc3nc4c5c(nc(-c6cc(N)cc(Cl)c6C(F)(F)F)c(F)c5n3)O[C@@H](C)[C@@H]3[C@@H]5CC[C@H](CN43)N5)CC2)CC1` [Example 337, 1-((1-((((5S,5aS,6S,9R)-2-(5-amino-3-chloro-2-(trifluoromethyl)phenyl)-1-fluoro-5-methyl-5a,6,7,8,9,10-hexahydro-5H-4-oxa-3,10a,11,13,14-pentaaza-6,9-methylnaphtho[1,8-ab]heptene-12-yl)oxy)methyl)cyclopropyl)methyl)piperidin-4-one O-methyloxime]: the AUC(0-inf) in data set [1] (setting [2]) was determined as 632 ng·h/mL. In addition, in data set [1] (setting [3]), the Cmax was 204 ng/mL, the half-life is 1.7 h and the Tmax was 1 h. Further, the IC50 in the data set on GP2D (Homo sapiens, GP2d, 72 h) came out at 0.11 nM.

`[2H]C([2H])([2H])[C@@H]1Oc2nc(-c3cc(N)cc(Cl)c3C(F)(F)F)c(F)c3nc(OCC4(CN5CCC(=NOC)CC5)CC4)nc(c23)N2C[C@H]3CC[C@H](N3)[C@@H]12` [Example 339]: the F in data set [1] (PO 30 mg/kg vs IV 1 mg/kg, male Balb/c mice) is listed as 13.8%. The AUC(0-inf) in data set [1] (setting [4]) turned out to be 133 ng·h/mL. Also, in data set [1] (setting [5]), the C0 was found to be 188 ng/mL, the clearance was 125 mL/min/kg and the half-life was 4.8 h. The AUC(0-inf) in data set [1] (setting [2]) was found to be 476 ng·h/mL. In data set [1] (setting [3]), the Cmax stood at 143 ng/mL, the half-life was 1.8 h and the time to peak (Tmax) worked out at 1 h. Also, the half-inhibitory concentration (IC50) with GP2D (Homo sapiens, GP2d, 72 h) was found to be 0.1 nM.

`C#Cc1c(F)ccc2cc(O)cc(-c3nc4c5c(nc(OCC6(CN7CCC(=NOC)CC7)CC6)nc5c3F)N3C[C@H]5CC[C@H](N5)[C@H]3[C@H](C)O4)c12` [Example 35-1, 1-((1-((((5S,5aS,6S,9R)-2-(8-ethynyl-7-fluoro-3-hydroxynaphthalen-1-yl)-1-fluoro-5-methyl-5a,6,7,8,9,10-hexahydro-5H-4-oxa-3,10a,11,13,14-pentaaza-6,9-methylenenaphtho[1,8-ab]heptalen-12-yl)oxo)methyl)cyclopropyl)methyl)piperidin-4-one O-methyloxime formate]: the AUC(0-inf) in data set [1] (setting [4]) was 144 ng·h/mL. Besides, in data set [1] (setting [5]), the C0 came to 693 ng/mL, the clearance amounted to 116 mL/min/kg and the half-life was 3.2 h. Moreover, the half-maximal inhibitory concentration (IC50) in the data set with GP2D (Homo sapiens, GP2d, 72 h) stood at 0.21 nM.

For the molecule “4-((5S,5aS,6R,9S)-12-((1-((((R)-4-(difluoromethylene)-2-methylpiperidin-1-yl)methyl)cyclopropyl)methoxy)-1-fluoro-5-(methyl-d3)-5a,6,7,8,9,10-hexahydro-5H-4-oxa-3,10a,11,13,14-pentaaza-6,9-methylnaphtho[1,8-ab]hept-2-yl)-5-ethynyl-6-fluoronaphthalen-2-ol [Example 162]”, in the data set on GP2D (proliferation, about 72 h, CellTiter-Glo), the IC50 came to 0.2 nM.
